The structures appear in SMILES notation. Converted amounts (≈) assume the structure as drawn.

This note sets out measurements from ChEMBL document CHEMBL4725308, “MK-5204: An orally active β-1,3-glucan synthesis inhibitor” (Bioorg Med Chem Lett, 2020).

The subject of data set [1] is Candida albicans. The data set is described as follows: Antifungal activity against Candida albicans MY1055 assessed as fungal growth inhibition measured after 24 hrs in presence of mouse serum by liquid microdilution method. It counts as functional. For orientation: Broth dilution looks for growth in wells or tubes with falling amounts of substance.
Data set [2] deals with Candida albicans. As to the kind of experiment: Antifungal activity against Candida albicans MY1055 infected in DBA mouse model assessed as log change in colony forming units in kidney at 12.5 mg/kg, po bid for 2 days and measured after 4 days by TOKA. It counts as functional. Conditions: time 2 day.
Data set [3] concerns Candida albicans. The data set is described as follows: Antifungal activity against Candida albicans MY1055 infected in DBA/2 mouse model assessed as log change in colony forming units in kidney at 25 mg/kg, po bid for 2 days and measured after 4 days by TOKA. It counts as functional. Conditions: time 2 day.
The nature of data set [4]: Oral bioavailability in mouse. It counts as ADME, organism-based. Conditions: in vivo.
The subject of data set [5] is Candida albicans. As to the kind of experiment: Antifungal activity against Candida albicans MY1055 assessed as fungal growth inhibition measured after 24 hrs by liquid microdilution method. It counts as functional.
A further data set deals with Aspergillus fumigatus. The data set is described as follows: Antifungal activity against Aspergillus fumigatus MF5668 assessed as fungal growth inhibition measured after 24 hrs by liquid microdilution method. To be noted: read-out: MEC. It counts as functional.
Data set [6] concerns Candida albicans. As to the kind of experiment: Antifungal activity against Candida albicans MY1055 infected in DBA/2 mouse model assessed as log change in colony forming units in kidney at 6.5 mg/kg, po bid for 2 days and measured after 4 days by TOKA. It counts as functional. Conditions: time 2 day.
A short description of data set [7]: Inhibition of beta-1,3-glucan synthase in Candida albicans MY1055 microsomal membrane using UDP-[3H]-glucose as substrate incubated for 2 hrs in presence of UTP by radioactivity-based assay. It counts as cell membranes.

`CC(C)[C@@H](C)[C@@]1(C)CC[C@]2(C)[C@H]3CC[C@@H]4[C@@]5(COC[C@]4(C)[C@@H](OC[C@](C)(N)C(C)C)[C@H](n4ncnc4Cl)C5)C3=CC[C@@]2(C)[C@@H]1C(=O)O`: the minimal inhibitory concentration (MIC) – broadly, the lowest concentration that inhibits growth of the organism – in the data set with Candida albicans [1] was found to be 8 µg/mL; in the data set with Candida albicans [5], 0.06 µg/mL (≈ 0.0891 µM). Moreover, the Activity is -2.2 log CFU in the data set with Candida albicans [2], -1.9 log CFU in the data set on Candida albicans [3] and -1.2 log CFU with Candida albicans [6]. Moreover, the bioavailability (in general, the share of a dose that reaches the circulation, judged against a reference dose that is usually intravenous) in data set [4] is 9%. For the same compound, the minimal effective concentration with Aspergillus fumigatus is under 0.03 µg/mL. For the same compound, the 50% inhibitory concentration (IC50) (usually the concentration that gives 50% inhibition) in data set [7] is 0.003 µg/mL.

Take `CCNC(=O)c1ncnn1[C@@H]1C[C@@]23COC[C@@](C)([C@@H]2CC[C@H]2C3=CC[C@@]3(C)[C@H](C(=O)O)[C@@](C)([C@H](C)C(C)C)CC[C@]23C)[C@H]1OC[C@](C)(N)C(C)C`: the MIC in the data set on Candida albicans [1] came to 16 µg/mL; in the data set with Candida albicans [5], 0.25 µg/mL (≈ 0.352 µM). Besides, the Activity with Candida albicans [2] was -1.4 log CFU; with Candida albicans [3], -2.8 log CFU; with Candida albicans [6] it was -0.8 log CFU. This compound also gave a bioavailability in data set [4] of 13%. Further, in the data set on Aspergillus fumigatus, the minimal effective concentration is under 0.03 µg/mL. Moreover, in data set [7], the half-inhibitory concentration (IC50) was determined as 0.008 µg/mL.

As for `CC(C)[C@@H](C)[C@@]1(C)CC[C@]2(C)[C@H]3CC[C@@H]4[C@@]5(COC[C@]4(C)[C@@H](OC[C@](C)(N)C(C)C)[C@H](n4ncnc4C(=O)NC4CC4)C5)C3=CC[C@@]2(C)[C@@H]1C(=O)O`, the minimal inhibitory concentration (MIC) is 16 µg/mL with Candida albicans [1] and 0.25 µg/mL (≈ 0.346 µM) in the data set on Candida albicans [5]. Moreover, the Activity in the data set with Candida albicans [2] is on record as -0.9 log CFU; with Candida albicans [3], -2.1 log CFU; in the data set with Candida albicans [6] it was -0.8 log CFU. The bioavailability in data set [4] was found to be 30%. Further, the minimal effective concentration in the data set with Aspergillus fumigatus is under 0.03 µg/mL. The 50% inhibitory concentration (IC50) in data set [7] was 0.005 µg/mL.

Turning to `CC(C)[C@@H](C)[C@@]1(C)CC[C@]2(C)[C@H]3CC[C@@H]4[C@@]5(COC[C@]4(C)[C@@H](OC[C@](C)(N)C(C)C)[C@H](n4ncnc4C(N)=O)C5)C3=CC[C@@]2(C)[C@@H]1C(=O)O`, the figures for the minimum inhibitory concentration (MIC) with Candida albicans [1] and with Candida albicans [5] were 2 µg/mL and under 0.03 µg/mL, respectively. The Activity is -0.2 log CFU in the data set with Candida albicans [2], -2.5 log CFU in the data set on Candida albicans [3] and -0.9 log CFU in the data set with Candida albicans [6]. This compound also gave a bioavailability in data set [4] of 7%. For the same compound, the minimal effective concentration in the data set on Aspergillus fumigatus was under 0.03 µg/mL. Also, the half-inhibitory concentration (IC50) in data set [7] was determined as 0.005 µg/mL.

With `CC(C)[C@@H](C)[C@@]1(C)CC[C@]2(C)[C@H]3CC[C@@H]4[C@@]5(COC[C@]4(C)[C@@H](OC[C@@](C)(C(C)C)N(C)C)[C@H](n4ncnc4C(N)=O)C5)C3=CC[C@@]2(C)[C@@H]1C(=O)O`, the values for the minimal inhibitory concentration (MIC) in the data set with Candida albicans [1] and in the data set on Candida albicans [5] were 16 µg/mL and 0.5 µg/mL (≈ 0.704 µM), respectively. Further, the results for the Activity in the data set on Candida albicans [2], in the data set on Candida albicans [3] and with Candida albicans [6] were -1.4 log CFU, -1.8 log CFU and -0.3 log CFU, respectively. Also, the bioavailability in data set [4] was 21%. Also, the minimal effective concentration in the data set on Aspergillus fumigatus is under 0.03 µg/mL. Further, in data set [7], the IC50 was determined as 0.015 µg/mL.
